The values that follow come from paper PMC5773532, “Crystal structure of an assembly intermediate of respiratory Complex II” (Nature Communications, 2018).

The target in one test is T1, FrdA+SdhE (Escherichia coli, UniProt P00363).
T1 construct: made in house; host or cells: FrdA: E. coli RP-2; SdhE for this assay: not described
The experiment in a line: Optical difference spectroscopy, dicarboxylate binding to FrdA in the presence of SdhE. As to the method: (§1) If this mechanistic proposal for covalent flavinylation is correct, we would anticipate that the FrdA-SdhE assembly intermediate would bind with reasonable affinity to biologically relevant dicarboxylates. […] Thus, the shifted architecture of SdhE-bound FrdA maintains dicarboxylate binding, supporting our mechanism.
(§2) Studies were performed using a HP8453 UV/Vis spectrophotometer (Agilent, Santa Clara, CA). […] The isolated flavoproteins were added to a cuvette and titrated by the sequential addition of ligand solutions. The wavelength giving the highest amplitude change for each ligand was selected from the difference spectra for the analysis. The dissociation constant (Kd) values were obtained by the analysis of the changes in absorbance vs total ligand concentration. The Kd was determined according Eq. 1:1 ΔA=ΔAmaxET+LT+Kd-ET+LT+Kd^2-4ETLT/2ET where ET is a total protein concentration, LT is a total ligand concentration, ΔA and ΔAmax are the absorbance changes at a given and saturation ligand concentration. The protein concentration used for FrdA, SdhA, and quinol:fumarate reductase (QFR) were in a range of 7 to 9 µM. […] The concentration of the isolated flavoprotein was determined in 0.5% SDS using the FAD extinction coefficient ε^445 = […].

The target in another test is E. coli SdhA subunit (Escherichia coli, UniProt P0AC41). The test can be described thus: Optical difference spectroscopy, ligand binding to isolated SdhA subunit. As to conditions: read-out: Kd^malonate. As for the experimental part: (§3) To interrogate dicarboxylate orientation in solution, we focused on oxaloacetate. When oxaloacetate is correctly oriented in the active site, it induces a characteristic spectrum (charge transfer band) attributed to π–π interactions between the oxygen of oxaloacetate and the isoalloxazine ring of FAD.
(§4) Studies were performed using a HP8453 UV/Vis spectrophotometer (Agilent, Santa Clara, CA). Binding experiments were carried out in 50 mM Bis-Tris-Propane (pH 8.0) at 25 °C. The isolated flavoproteins were added to a cuvette and titrated by the sequential addition of ligand solutions. The wavelength giving the highest amplitude change for each ligand was selected from the difference spectra for the analysis. The dissociation constant (Kd) values were obtained by the analysis of the changes in absorbance vs total ligand concentration. The Kd was determined according Eq. 1:1 ΔA=ΔAmaxET+LT+Kd-ET+LT+Kd^2-4ETLT/2ET where ET is a total protein concentration, LT is a total ligand concentration, ΔA and ΔAmax are the absorbance changes at a given and saturation ligand concentration. The protein concentration used for FrdA, SdhA, and quinol:fumarate reductase (QFR) were in a range of 7 to 9 µM. […]

The target of a further test is SdhA+SdhE (Escherichia coli, UniProt P0AC41). The test can be described thus: Optical difference spectroscopy, dicarboxylate binding to SdhA in the presence of SdhE. The settings on record: read-out: Kd^malonate. As for the experimental part: as §1, §2
The target of the next test is T2, E. coli FrdA subunit (Escherichia coli, UniProt P00363).
T2 construct: made in house; host or cells: E. coli RP-2 (RP437ΔfrdΔsdh)
The experiment in a line: biochemical. The test is classed as binding. As for the experimental part:
as §3, §4

The target in test [1] is T3, Escherichia coli quinol:fumarate reductase flavoprotein subunit FrdA (isolated subunit) (E. coli, UniProt P00363 1-602, covalent FAD on H44 (8α-N(3)-histidyl linkage)).
T3 construct: FrdA, flavoprotein subunit of E. coli quinol:fumarate reductase (FrdABCD), isolated subunit without FrdBCD; The methods describe only FrdA in lysate; also called FrdA subunit; Complex II flavoprotein subunit; source: 'purified, isolated FrdA' for spectroscopy and kinetics (purification not described)
T3 sequence (looked up): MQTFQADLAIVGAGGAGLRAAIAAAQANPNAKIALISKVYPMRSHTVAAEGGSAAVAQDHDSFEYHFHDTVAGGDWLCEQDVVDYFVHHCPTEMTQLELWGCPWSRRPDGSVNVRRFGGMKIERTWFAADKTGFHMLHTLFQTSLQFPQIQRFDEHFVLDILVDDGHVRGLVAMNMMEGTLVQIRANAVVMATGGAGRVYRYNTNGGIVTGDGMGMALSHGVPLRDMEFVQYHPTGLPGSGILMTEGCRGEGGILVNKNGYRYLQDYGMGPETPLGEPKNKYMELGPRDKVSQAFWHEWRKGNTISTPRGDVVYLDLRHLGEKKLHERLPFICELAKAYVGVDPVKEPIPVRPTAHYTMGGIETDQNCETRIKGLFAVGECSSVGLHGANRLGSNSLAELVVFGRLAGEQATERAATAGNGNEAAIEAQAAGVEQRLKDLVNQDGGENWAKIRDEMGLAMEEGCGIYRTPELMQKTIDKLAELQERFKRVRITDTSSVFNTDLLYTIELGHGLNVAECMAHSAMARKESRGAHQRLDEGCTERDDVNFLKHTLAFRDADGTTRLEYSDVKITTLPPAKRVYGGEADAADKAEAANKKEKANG
The experiment in a line: optical difference spectroscopy (FAD absorbance titration); isolated flavoprotein (7 to 9 µM) in the cuvette titrated with SdhE; 50 mM Bis-Tris-Propane pH 8.0, 25 °C; 387–458 nm; fit of absorbance change against total ligand concentration. The settings on record: both partners purified.

The target of test [2] is T3, Escherichia coli quinol:fumarate …. The experiment in a line: cell-based or functional assay.
For test [3], the target named is T4, Escherichia coli succinate:quinone oxidoreductase flavoprotein subunit SdhA (isolated subunit) (E. coli, UniProt P0AC41 1-588).
T4 sequence (looked up): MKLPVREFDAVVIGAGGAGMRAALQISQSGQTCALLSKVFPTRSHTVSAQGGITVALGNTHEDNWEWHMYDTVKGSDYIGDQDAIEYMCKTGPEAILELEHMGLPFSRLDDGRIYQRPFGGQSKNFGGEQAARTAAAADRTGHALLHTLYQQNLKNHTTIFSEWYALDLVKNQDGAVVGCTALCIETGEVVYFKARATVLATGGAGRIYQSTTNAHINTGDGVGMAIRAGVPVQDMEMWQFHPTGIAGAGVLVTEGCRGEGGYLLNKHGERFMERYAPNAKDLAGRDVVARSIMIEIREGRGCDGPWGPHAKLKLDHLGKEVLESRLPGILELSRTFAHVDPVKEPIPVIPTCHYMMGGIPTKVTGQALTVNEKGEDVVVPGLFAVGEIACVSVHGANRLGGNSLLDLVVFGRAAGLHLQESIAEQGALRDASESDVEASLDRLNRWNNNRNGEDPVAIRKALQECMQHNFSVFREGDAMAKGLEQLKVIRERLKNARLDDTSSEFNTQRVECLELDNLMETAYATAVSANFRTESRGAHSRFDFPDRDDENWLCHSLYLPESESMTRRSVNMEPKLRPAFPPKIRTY
The test can be described thus: cell-based or functional assay.

Take `O=C(O)CC(=O)O` [malonate]: the “increase of Kd^malonate in the presence of SdhE” value on FrdA+SdhE (presence vs absence of SdhE, stated for both FrdA and SdhA subunits) was 5- to 7 fold. Further, the Kd (as a rule, the equilibrium constant for the complex coming apart) at FrdA+SdhE (read-out: Kd^malonate) stood at 180 ± 20 µM; on E. coli SdhA subunit, 11 ± 1 µM; on SdhA+SdhE, 60 ± 5 µM; on E. coli FrdA subunit, 26 ± 3 µM.

B1: Escherichia coli SdhE assembly factor (natural protein, E. coli)
chain: MDINNKARIHWACRRGMRELDISIMPFFEHEYDSLSDDEKRIFIRLLECDDPDLFNWLMNHGKPADAELEMMVRLIQTRNRERGPVAI
notes: SdhE, FAD assembly factor of E. coli Complex II, as used in optical titrations and kinetics; construct not described
In turn, B1 came in with a Kd in test [1] of 0.7 ± 0.1 µM. In test [2], the “inhibition by SdhE of the succinate:DCIP reductase reaction of isolated FrdA (0.45 µM), pH 8.0, 30 °C; IC50^SdhE” value came out at 1.2 µM. Also, the “inhibition by SdhE of the succinate:DCIP reductase reaction of isolated SdhA, pH 8.0, 30 °C; IC50^SdhE” value in test [3] came out at 1.5 µM.
